Assay results as given in ChEMBL document CHEMBL1201862, “PubChem BioAssay data set” (2004).
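Cultured in 96-well plates, cells were exposed to test compound for 48 hours across five concentrations. Abbreviation: GI50, concentration required for 50% inhibition of growth.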 Active and inactive are the calls of the source. Cut-off read from the data, not from the text of the source: active = GI50 up to about 1.1 µM and inactive = higher.

Key:
Assay in all cases: DTP human tumour cell line panel, 48 h
A498 = system: A498
CCRF-CEM = system: CCRF-CEM
EKVX = system: EKVX
HL-60 = system: HL-60
HOP-92 = system: HOP-92
HT-29 = system: HT-29
IGROV-1 = system: IGROV-1
M14 = system: M14
NCI-H226 = system: NCI-H226
OVCAR-5 = system: OVCAR-5
PC-3 = system: PC-3
SF-268 = system: SF-268
SF-295 = system: SF-295
SF-539 = system: SF-539
SK-MEL-2 = system: SK-MEL-2
SK-OV-3 = system: SK-OV-3
SNB-19 = system: SNB-19
SNB-75 = system: SNB-75
UACC-257 = system: UACC-257

| SMILES | GI50 (A498) | GI50 (CCRF-CEM) | GI50 (EKVX) | GI50 (HL-60) | GI50 (HOP-92) | GI50 (HT-29) | GI50 (IGROV-1) | GI50 (M14) | GI50 (NCI-H226) | GI50 (OVCAR-5) | GI50 (PC-3) | GI50 (SF-268) | GI50 (SF-295) | GI50 (SF-539) | GI50 (SK-MEL-2) | GI50 (SK-OV-3) | GI50 (SNB-19) | GI50 (SNB-75) | GI50 (UACC-257) |
| --- | --- | --- | --- | --- | --- | --- | --- | --- | --- | --- | --- | --- | --- | --- | --- | --- | --- | --- | --- |
| O=C(O)c1ccccc1C(=O)NCC1S(=O)(=O)OCCOS1(=O)=O | > 100 µM (inactive) | > 100 µM (inactive) | > 100 µM (inactive) | > 100 µM (inactive) | > 100 µM (inactive) | > 100 µM (inactive) | > 100 µM (inactive) | > 100 µM (inactive) | > 100 µM (inactive) | > 100 µM (inactive) | > 100 µM (inactive) | > 100 µM (inactive) | > 100 µM (inactive) | > 100 µM (inactive) | > 100 µM (inactive) | > 100 µM (inactive) | > 100 µM (inactive) | > 100 µM (inactive) | > 100 µM (inactive) |
| Cc1nc(-c2ccccc2)cn2c1nc1ccccc12 | 15.3 µM (inactive) | > 58.7 µM (inactive) | 25.2 µM (inactive) | 67 µM (inactive) | 21 µM (inactive) | 24.3 µM (inactive) | 19.9 µM (inactive) | 30.5 µM (inactive) | 17.5 µM (inactive) | > 31.6 µM (inactive) | 24.7 µM (inactive) | 28.5 µM (inactive) | 23.9 µM (inactive) | 23.1 µM (inactive) | 20.2 µM (inactive) | 6.32 µM (inactive) | 29.5 µM (inactive) | 17.2 µM (inactive) | 29 µM (inactive) |
| CC(NNC(=O)c1ccncc1)c1ccc(F)cc1 (stereo not given) | > 100 µM (inactive) | > 100 µM (inactive) | > 100 µM (inactive) | 80 µM (inactive) | > 100 µM (inactive) | > 100 µM (inactive) | > 100 µM (inactive) | 41.8 µM (inactive) | > 100 µM (inactive) | > 100 µM (inactive) | > 100 µM (inactive) | > 100 µM (inactive) | > 100 µM (inactive) | > 100 µM (inactive) | > 100 µM (inactive) | > 100 µM (inactive) | > 100 µM (inactive) | > 100 µM (inactive) | > 100 µM (inactive) |
| O=C(O)C(=Cc1ccnc2ccccc12)C(=O)O | > 100 µM (inactive) | > 100 µM (inactive) | > 100 µM (inactive) | > 100 µM (inactive) | > 100 µM (inactive) | > 100 µM (inactive) | > 100 µM (inactive) | > 100 µM (inactive) | > 100 µM (inactive) | > 100 µM (inactive) | > 100 µM (inactive) | > 100 µM (inactive) | > 100 µM (inactive) | > 100 µM (inactive) | > 100 µM (inactive) | > 100 µM (inactive) | > 100 µM (inactive) | > 100 µM (inactive) | > 100 µM (inactive) |
| CCOc1ccnc2c(OC)c(C)c3nc4ccccc4nc3c12 | > 100 µM (inactive) | > 100 µM (inactive) | > 100 µM (inactive) | > 100 µM (inactive) | 93.8 µM (inactive) | 72.8 µM (inactive) | 52.1 µM (inactive) | > 100 µM (inactive) | > 100 µM (inactive) | > 100 µM (inactive) | 89.3 µM (inactive) | > 100 µM (inactive) | > 100 µM (inactive) | > 100 µM (inactive) | > 100 µM (inactive) | > 100 µM (inactive) | > 100 µM (inactive) | 25.3 µM (inactive) | > 100 µM (inactive) |
| COC(=O)C12Oc3ccc(-c4ccc5c(c4O)C(O)=C4C(=O)CC(C)C(O)C4(C(=O)OC)O5)c(O)c3C(O)=C1C(=O)CC(C)C2O (stereo not given) | 0.544 µM (active) | 0.0255 µM (active) | 0.0805 µM (active) | 0.102 µM (active) | 0.466 µM (active) | 0.0495 µM (active) | 0.104 µM (active) | 0.104 µM (active) | 0.416 µM (active) | 0.119 µM (active) | 0.0764 µM (active) | 0.0843 µM (active) | 0.211 µM (active) | 0.055 µM (active) | 0.0798 µM (active) | 0.103 µM (active) | 0.583 µM (active) | 0.241 µM (active) | 0.073 µM (active) |
| O=C(Nc1ccccc1)O/N=C(/CBr)c1ccccc1 | 24 µM (inactive) | 3.52 µM (inactive) | 17.1 µM (inactive) | 4.66 µM (inactive) | 16.1 µM (inactive) | 6.87 µM (inactive) | 14.6 µM (inactive) | 6.79 µM (inactive) | 24 µM (inactive) | 18.1 µM (inactive) | 12.6 µM (inactive) | 14.3 µM (inactive) | 26 µM (inactive) | 7.11 µM (inactive) | 13.9 µM (inactive) | 29.2 µM (inactive) | 20.6 µM (inactive) | 15.2 µM (inactive) | 17.8 µM (inactive) |
| Cc1ccc(S(=O)(=O)ON2C(=O)c3c(N)c(C#N)c(-c4ccccc4)c(-c4ccccc4)c3C2=O)cc1 | 20 µM (inactive) | 3.16 µM (inactive) | 14.6 µM (inactive) | 2.7 µM (inactive) | 21.6 µM (inactive) | 19.1 µM (inactive) | 15.8 µM (inactive) | 13.6 µM (inactive) | 15.9 µM (inactive) | 18 µM (inactive) | 15.7 µM (inactive) | 34.3 µM (inactive) | 20 µM (inactive) | 21.6 µM (inactive) | 17.1 µM (inactive) | 16.2 µM (inactive) | 24 µM (inactive) | 36.4 µM (inactive) | 18.6 µM (inactive) |
| Nc1c(S(=O)(=O)O)cc(S(=O)(=O)O)c2ccc(/N=N/c3ccccc3)c(O)c12 | > 100 µM (inactive) | > 100 µM (inactive) | > 100 µM (inactive) | > 100 µM (inactive) | > 100 µM (inactive) | > 100 µM (inactive) | > 100 µM (inactive) | > 100 µM (inactive) | > 100 µM (inactive) | > 100 µM (inactive) | > 100 µM (inactive) | > 100 µM (inactive) | > 100 µM (inactive) | > 100 µM (inactive) | > 100 µM (inactive) | > 100 µM (inactive) | > 100 µM (inactive) | > 100 µM (inactive) | > 100 µM (inactive) |
| CC(C)[Si]1(C(C)C)OCC2OC(n3ccc(=O)[nH]c3=O)C([Se]c3ccccc3)C2O[Si](C(C)C)(C(C)C)O1 (stereo not given) | 7.87 µM (inactive) | 8.91 µM (inactive) | 4.93 µM (inactive) | 5.89 µM (inactive) | 3.5 µM (inactive) | 1.66 µM (inactive) | 2.44 µM (inactive) | 8.24 µM (inactive) | 1.55 µM (inactive) | 9.48 µM (inactive) | 3.35 µM (inactive) | 2.93 µM (inactive) | 5.9 µM (inactive) | 7.96 µM (inactive) | 6.79 µM (inactive) | 16.5 µM (inactive) | 0.261 µM (active) | 0.33 µM (active) | 4.31 µM (inactive) |
| Cc1ccc(-c2cn3c(nc4ccccc43)c(C)n2)cc1 | 19.8 µM (inactive) | 85.3 µM (inactive) | > 54 µM (inactive) | 26.5 µM (inactive) | 8.93 µM (inactive) | 24.4 µM (inactive) | 11.7 µM (inactive) | 39.5 µM (inactive) | 34.3 µM (inactive) | 51.6 µM (inactive) | 46.6 µM (inactive) | > 46.6 µM (inactive) | > 58.1 µM (inactive) | > 54.3 µM (inactive) | > 43.4 µM (inactive) | 7.66 µM (inactive) | 66.2 µM (inactive) | > 47 µM (inactive) | > 100 µM (inactive) |
| O=c1[nH]c2ccccc2c(=O)n1/N=C/c1ccc(O)cc1 | > 100 µM (inactive) | 66.4 µM (inactive) | > 100 µM (inactive) | > 100 µM (inactive) | 26.1 µM (inactive) | > 100 µM (inactive) | > 100 µM (inactive) | > 100 µM (inactive) | > 100 µM (inactive) | > 100 µM (inactive) | 73.5 µM (inactive) | 42.2 µM (inactive) | 50.7 µM (inactive) | 66.5 µM (inactive) | 66.7 µM (inactive) | > 100 µM (inactive) | 36 µM (inactive) | 41.4 µM (inactive) | > 100 µM (inactive) |
| C/C(=N\O)c1cccc[n+]1Cc1ccccc1 | > 100 µM (inactive) | > 100 µM (inactive) | > 100 µM (inactive) | > 100 µM (inactive) | > 100 µM (inactive) | > 100 µM (inactive) | > 100 µM (inactive) | > 100 µM (inactive) | > 100 µM (inactive) | > 100 µM (inactive) | > 100 µM (inactive) | > 100 µM (inactive) | > 100 µM (inactive) | > 100 µM (inactive) | > 100 µM (inactive) | > 100 µM (inactive) | > 100 µM (inactive) | > 100 µM (inactive) | > 100 µM (inactive) |
| COc1ccc(/C=N/c2ccc(-c3nc4ccccc4s3)cc2)cc1OC | 18.8 µM (inactive) | 12.8 µM (inactive) | 32.9 µM (inactive) | 1.3 µM (inactive) | 22.4 µM (inactive) | 30.7 µM (inactive) | 25.1 µM (inactive) | 35.7 µM (inactive) | 30.1 µM (inactive) | 36.5 µM (inactive) | 22.6 µM (inactive) | 28 µM (inactive) | 25.4 µM (inactive) | 34.8 µM (inactive) | 22 µM (inactive) | 31 µM (inactive) | 54.1 µM (inactive) | 25.7 µM (inactive) | 22.7 µM (inactive) |
| N#Cc1ccc(-n2c3ccccc3c3ccc4c(c32)C(=O)C=CC4=O)cc1 | 1.85 µM (inactive) | 0.409 µM (active) | 1.91 µM (inactive) | 0.578 µM (active) | 1.52 µM (inactive) | 1.66 µM (inactive) | 5.25 µM (inactive) | 2.68 µM (inactive) | 24.3 µM (inactive) | 17.8 µM (inactive) | 3.06 µM (inactive) | 2.62 µM (inactive) | 14 µM (inactive) | 3.94 µM (inactive) | 8.87 µM (inactive) | 13.8 µM (inactive) | 10.1 µM (inactive) | 18.2 µM (inactive) | 4.67 µM (inactive) |
